Measured values as given in patent US12281363B2, “Methods for detecting antiviral-drug resistant virus” (Secretary of State for Health and Social Care, priority 2018, dated 2025).
Where two headings read alike, the source gives them in different places.

System: HSV-1
Assay: Plaque reduction assay, HSV-1 clinical isolates on Vero cells
Type: cell-based
Details: Human alphaherpesvirus 1, Vero
From the text: Viral isolates were used to infect a sub-confluent monolayer of Vero cells at a concentration of 75 or 50 plaque forming units (PFU) per well for HSV-1 and HSV-2, respectively. […] CMC medium typically used to create a semisolid interface and prevents indiscrimate viral spreading. Other materials (e.g. agar) may also be used to create this interface.
Cells were fixed with 10% formalin and stained with crystal violet before enumeration of the plaques (microscopic observation or use of fluorescent antibodies for detection is also suitable). The data obtained from these experiments were then expressed as percent inhibition of viral infectivity relative to the no drug control.
Definitions of phenotypic drug susceptibility classification as sensitive or resistant were as follows: ACV, <3 μM or >40 μM; PCV, <10 μM or >40 μM; CDV, <24 μM or >30 μM; FOS, <250 μM or >400 μM; and ACV, <6.5 μM or >40 μM; PCV, <38 μM or >40 μM; FOS, <250 μM or >400 μM for HSV-1 and HSV-2, respectively. Any IC50 values falling in between these sensitive and resistant cut-offs were reported as intermediate resistance.
The phenotype (i.e. reactivity to a drug) of the virus was characterised by the plaque reduction assay as described above.

Measured: IC50

Nc1ccn(C[C@@H](CO)OCP(=O)(O)O)c(=O)n1 [Cidofovir, cidofovir]
3.03 µM: isolate HPG018, HSV-1 TK frameshift (881delC to 885delC), read-out: Drug susceptibility (IC50 value) | isolate HPG018, HSV-1 pol P1199T (3595C>A), also TK deletion (C) nt 881-885, pol A1169T, read-out: Drug susceptibility (IC50 value)
< 1.56 µM: isolate HPG003, HSV-1 TK Y172S (515A>C), read-out: Drug susceptibility (IC50 value) | isolate HPG010, HSV-1 TK Q125* (373C>T), read-out: Drug susceptibility (IC50 value) | isolate HPG011, HSV-1 TK Q125* (373C>T), read-out: Drug susceptibility (IC50 value) | isolate HPG021, HSV-1 pol R681Q (2042G>A), also TK deletion (G) nt 430-436, read-out: Drug susceptibility (IC50 value) | isolate HPG021, HSV-1 pol T839A (2515A>G), also TK deletion (G) nt 430-436, read-out: Drug susceptibility (IC50 value) | isolate HPG025, HSV-1 pol E850Q (2548G>C), also TK R216C, read-out: Drug susceptibility (IC50 value) | isolate HPG026, HSV-1 pol E850Q (2548G>C), also TK R216C, pol A1169T, read-out: Drug susceptibility (IC50 value)
3.56 µM: isolate HPG008, HSV-1 TK V204G (611T>G), read-out: Drug susceptibility (IC50 value)
9.44 µM: isolate HPG009, HSV-1 pol E992K (2974G>A), also pol A1169T, read-out: Drug susceptibility (IC50 value)
45.1 µM: isolate HPG015, HSV-1 pol 966stop or F965_I966insF (2892_2893insT to 2895_2896insT), read-out: Drug susceptibility (IC50 value)
20.4 µM: isolate HPG019, HSV-1 pol K750T (2249A>C), also TK deletion (G) nt 430-436, pol A1169T, read-out: Drug susceptibility (IC50 value)
> 30 µM: isolate HPG015, HSV-1 pol 966stop or F965_I966insF (2892_2893insT to 2895_2896insT), read-out: Drug susceptibility Cidofovir (CDV)
4.8 µM: isolate HPG031, HSV-1 pol E1120A (3359A>C), also a TK resistance mutation (footnote e), read-out: Drug susceptibility (IC50 value) | isolate HPG031, HSV-1 pol G139R (415G>C or 415G>A), also a TK resistance mutation (footnote e), read-out: Drug susceptibility (IC50 value)
17.2 µM: isolate HPG014, HSV-1 pol A1115T (3343G>A), read-out: Drug susceptibility (IC50 value) | isolate HPG014, HSV-1 pol R993C (2977C>T), read-out: Drug susceptibility (IC50 value) | isolate HPG014, HSV-1 pol T54A (160A>G), read-out: Drug susceptibility (IC50 value)
7.72 µM: 72 h, isolate HPG053, HSV-1 pol L802R + A834S (2405T>G, 2500G>T), also TK R176W, read-out: Drug susceptibility (IC50 value)
4.38 µM: isolate HPG020, HSV-1 pol S911N (2732G>A), also pol A1169T, read-out: Drug susceptibility (IC50 value)
2.21 µM: isolate HPG005, HSV-1 TK A37V (110C>T), read-out: Drug susceptibility (IC50 value)
3.93 µM: isolate HPG027, HSV-1 TK V204G (611T>G), also pol S914L, A1169AT, read-out: Drug susceptibility (IC50 value) | isolate HPG027, HSV-1 pol S914L (2741C>T), also TK V204G, pol A1169T, read-out: Drug susceptibility (IC50 value)
3.61 µM: isolate HPG032, HSV-1 TK 183* (437_438insA), read-out: Drug susceptibility (IC50 value)
< 24 µM: isolate HPG002, HSV-1 pol E992K (2974G>A), also TK insert (G) nt 430-436, pol A1169T, read-out: Drug susceptibility Cidofovir (CDV) | isolate HPG003, HSV-1 TK Y172S (515A>C), read-out: Drug susceptibility Cidofovir (CDV) | isolate HPG005, HSV-1 TK A37V (110C>T), read-out: Drug susceptibility Cidofovir (CDV) | isolate HPG008, HSV-1 TK V204G (611T>G), read-out: Drug susceptibility Cidofovir (CDV) | isolate HPG009, HSV-1 pol E992K (2974G>A), also pol A1169T, read-out: Drug susceptibility Cidofovir (CDV) | isolate HPG010, HSV-1 TK Q125* (373C>T), read-out: Drug susceptibility Cidofovir (CDV) | isolate HPG011, HSV-1 TK Q125* (373C>T), read-out: Drug susceptibility Cidofovir (CDV) | isolate HPG013, HSV-1 TK M121I (363G>A), read-out: Drug susceptibility Cidofovir (CDV) | isolate HPG013, HSV-1 pol D83A (248A>C), also TK M121I, pol A1169T, read-out: Drug susceptibility Cidofovir (CDV) | isolate HPG014, HSV-1 pol A1115T (3343G>A), read-out: Drug susceptibility Cidofovir (CDV) | isolate HPG014, HSV-1 pol R993C (2977C>T), read-out: Drug susceptibility Cidofovir (CDV) | isolate HPG014, HSV-1 pol T54A (160A>G), read-out: Drug susceptibility Cidofovir (CDV) | isolate HPG018, HSV-1 TK frameshift (881delC to 885delC), read-out: Drug susceptibility Cidofovir (CDV) | isolate HPG018, HSV-1 pol P1199T (3595C>A), also TK deletion (C) nt 881-885, pol A1169T, read-out: Drug susceptibility Cidofovir (CDV) | isolate HPG019, HSV-1 pol K750T (2249A>C), also TK deletion (G) nt 430-436, pol A1169T, read-out: Drug susceptibility Cidofovir (CDV) | isolate HPG020, HSV-1 pol S911N (2732G>A), also pol A1169T, read-out: Drug susceptibility Cidofovir (CDV) | isolate HPG021, HSV-1 pol R681Q (2042G>A), also TK deletion (G) nt 430-436, read-out: Drug susceptibility Cidofovir (CDV) | isolate HPG021, HSV-1 pol T839A (2515A>G), also TK deletion (G) nt 430-436, read-out: Drug susceptibility Cidofovir (CDV) | isolate HPG025, HSV-1 pol E850Q (2548G>C), also TK R216C, read-out: Drug susceptibility Cidofovir (CDV) | isolate HPG026, HSV-1 pol E850Q (2548G>C), also TK R216C, pol A1169T, read-out: Drug susceptibility Cidofovir (CDV) | isolate HPG027, HSV-1 TK V204G (611T>G), also pol S914L, A1169AT, read-out: Drug susceptibility Cidofovir (CDV) | isolate HPG027, HSV-1 pol S914L (2741C>T), also TK V204G, pol A1169T, read-out: Drug susceptibility Cidofovir (CDV) | isolate HPG029, HSV-1 TK Y172S (515A>C), read-out: Drug susceptibility Cidofovir (CDV) | isolate HPG031, HSV-1 pol E1120A (3359A>C), also a TK resistance mutation (footnote e), read-out: Drug susceptibility Cidofovir (CDV) | isolate HPG031, HSV-1 pol G139R (415G>C or 415G>A), also a TK resistance mutation (footnote e), read-out: Drug susceptibility Cidofovir (CDV)
3.11 µM: isolate HPG013, HSV-1 TK M121I (363G>A), read-out: Drug susceptibility (IC50 value) | isolate HPG013, HSV-1 pol D83A (248A>C), also TK M121I, pol A1169T, read-out: Drug susceptibility (IC50 value)
2.99 µM: isolate HPG029, HSV-1 TK Y172S (515A>C), read-out: Drug susceptibility (IC50 value)
6.09 µM: isolate HPG002, HSV-1 pol E992K (2974G>A), also TK insert (G) nt 430-436, pol A1169T, read-out: Drug susceptibility (IC50 value)
